Results as given in US20060069132A1, “Azolecarboxamide herbicides” (priority 2004, published 2006).
Like-named read-outs stand apart in the source and are kept apart here.

Tests used:
kochia = experiment: Test C pre-/postemergence herbicide test; type: in vivo, Kochia scoparia
Outline: (§1)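 Greenhouse-grown plants were evaluated visually 12 to 14 days after treatment, with 100 meaning complete control and 0 no effect. Application was preemergence, or postemergence at 2 to 18 cm.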

woolly cupgrass = experiment: Test C pre-/postemergence herbicide test; type: in vivo, Eriochloa villosa
Outline: as §1

[1] = system: smallflower umbrella sedge; experiment: Test C flooded paddy test; type: in vivo, Cyperus difformis; settings: Cyperus difformis
ducksalad = experiment: Test C flooded paddy test; type: in vivo, Heteranthera limosa; settings: Heteranthera limosa
goosegrass = experiment: Test C pre-/postemergence herbicide test; type: in vivo, Eleusine indica
Outline: as §1

cocklebur = experiment: Test C pre-/postemergence herbicide test; type: in vivo, Xanthium strumarium
Outline: as §1

redroot pigweed = experiment: Test A pre-/postemergence herbicide test; type: in vivo, Amaranthus retroflexus; settings: Amaranthus retroflexus, 240 h; for pest or weed control at 500 g/ha: 500 g ai/ha; for pest or weed control at 2000 g/ha: 2000 g ai/ha
Outline: (§2)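 Plants are held in greenhouse about ten days after treatment, then compared with untreated controls and scored 0 (no effect) to 100 (complete control). Preemergence dosing is a directed soil spray on sown sandy loam; postemergence dosing is spray to runoff at 2–10 cm height.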

barnyardgrass = experiment: Test A pre-/postemergence herbicide test; type: in vivo, Echinochloa crus-galli; settings: Echinochloa crus-galli, 240 h; for pest or weed control at 500 g/ha: 500 g ai/ha; for pest or weed control at 2000 g/ha: 2000 g ai/ha
Outline: as §2

giant foxtail = experiment: Test A pre-/postemergence herbicide test; type: in vivo, Setaria faberi; settings: Setaria faberi, 240 h; for pest or weed control at 500 g/ha: 500 g ai/ha; for pest or weed control at 2000 g/ha: 2000 g ai/ha
Outline: as §2

lambsquarters = experiment: Test C pre-/postemergence herbicide test; type: in vivo, Chenopodium album
Outline: as §1

bermudagrass = experiment: Test C pre-/postemergence herbicide test; type: in vivo, Cynodon dactylon
Outline: as §1

morningglory = experiment: Test C pre-/postemergence herbicide test; type: in vivo, Ipomoea coccinea
Outline: as §1

[2] = Preemergence, 500 g ai/ha, scale 0 to 100, 0 no effect, 100 complete control
[3] = post-emergence, Postemergence, 0 to 100 scale, 0 no effect, 100 complete control, read-out: Plant response rating, Pigweed
[4] = post-emergence, Postemergence, 0 to 100 scale, 0 no effect, 100 complete control, read-out: Plant response rating, Barnyardgrass
[5] = post-emergence, Postemergence, 0 to 100 scale, 0 no effect, 100 complete control, read-out: Plant response rating, Foxtail, Giant

In the case of CCn1nc(C(C)(C)C)cc1C(=O)Nc1cc(C(=O)N(C)C)ccc1F [Compound 6, N-[5-[(dimethylamino)carbonyl]-2-fluorophenyl]-3-(1,1-dimethylethyl)-1-ethyl-1H-pyrazole-5-carboxamide], the “Plant response rating (0 = no effect, 100 = complete control), Kochia” value (kochia; 62 g ai/ha, preemergence) is reported as 100, the pest or weed control at 125 g/ha (kochia; Bassia scoparia, pre-emergence, 125 g ai/ha, scale 0-100, read-out: Plant response rating, Kochia) is reported as 100% and the pest or weed control at 250 g/ha (kochia; Bassia scoparia, pre-emergence, 250 g ai/ha, scale 0 to 100 (0 no effect, 100 complete control), visual, 12 to 14 days, read-out: Plant response rating, Kochia) is reported as 100%. The “Kochia plant response rating” value (kochia; [2]) was 100, the “Plant response rating (0 = no effect, 100 = complete control), Cupgrass, Woolly” value (woolly cupgrass; 62 g ai/ha, preemergence) was 50 and the pest or weed control at 125 g/ha (woolly cupgrass; Eriochloa villosa, pre-emergence, 312 h, 125 g ai/ha, scale 0-100, read-out: Plant response rating, Cupgrass, Woolly) was 55%. For the same compound, the pest or weed control at 250 g/ha (woolly cupgrass; Eriochloa villosa, pre-emergence, 312 h, 250 g ai/ha, scale 0 to 100 (0 no effect, 100 complete control), visual, 12 to 14 days, read-out: Plant response rating, Cupgrass, Woolly) was 75%, the “Cupgrass, Woolly plant response rating” value (woolly cupgrass; [2]) was 75 and the pest or weed control at 62 g/ha ([1]; 62 g ai/ha, scale 0 to 100 (0 no effect, 100 complete control), read-out: Sedge, Umbrella plant response rating) was 70%. The pest or weed control at 125 g/ha ([1]; 125 g ai/ha, scale of 0 to 100, 0 is no effect, 100 is complete control, read-out: Sedge, Umbrella plant response rating) was 90%, the pest or weed control at 250 g/ha ([1]; 250 g ai/ha, visual rating after 12 to 14 days, scale 0 to 100 (0 no effect, 100 complete control), read-out: Plant response rating, Sedge, Umbrella) was 90% and the pest or weed control at 500 g/ha ([1]; 500 g ai/ha, visual rating after 12 to 14 days, scale 0 to 100 (0 no effect, 100 complete control), read-out: Plant response rating, Sedge, Umbrella) was 90%. The pest or weed control at 62 g/ha (ducksalad; 62 g ai/ha, scale 0 to 100 (0 no effect, 100 complete control), read-out: Ducksalad plant response rating) was 80%, the pest or weed control at 125 g/ha (ducksalad; 125 g ai/ha, scale of 0 to 100, 0 is no effect, 100 is complete control, read-out: Ducksalad plant response rating) was 90% and the pest or weed control at 250 g/ha (ducksalad; 250 g ai/ha, visual rating after 12 to 14 days, scale 0 to 100 (0 no effect, 100 complete control), read-out: Plant response rating, Ducksalad) was 90%. For the same compound, the pest or weed control at 500 g/ha (ducksalad; 500 g ai/ha, visual rating after 12 to 14 days, scale 0 to 100 (0 no effect, 100 complete control), read-out: Plant response rating, Ducksalad) was 100%, the “Plant response rating (0 = no effect, 100 = complete control), Goosegrass” value (goosegrass; 62 g ai/ha, preemergence) was 85 and the pest or weed control at 125 g/ha (goosegrass; Eleusine indica, pre-emergence, 312 h, 125 g ai/ha, scale 0-100, read-out: Plant response rating, Goosegrass) was 100%. The pest or weed control at 250 g/ha (goosegrass; Eleusine indica, pre-emergence, 312 h, 250 g ai/ha, scale 0 to 100 (0 no effect, 100 complete control), visual, 12 to 14 days, read-out: Plant response rating, Goosegrass) was 100%, the “Goosegrass plant response rating” value (goosegrass; [2]) was 100 and the “Plant response rating (0 = no effect, 100 = complete control), Cocklebur” value (cocklebur; 62 g ai/ha, preemergence) was 60. For the same compound, the pest or weed control at 125 g/ha (cocklebur; Xanthium strumarium, pre-emergence, 312 h, 125 g ai/ha, scale 0-100, read-out: Plant response rating, Cocklebur) was 100%, the pest or weed control at 250 g/ha (cocklebur; Xanthium strumarium, pre-emergence, 312 h, 250 g ai/ha, scale 0 to 100 (0 no effect, 100 complete control), visual, 12 to 14 days, read-out: Plant response rating, Cocklebur) was 100% and the pest or weed control at 500 g/ha (cocklebur; Xanthium strumarium, pre-emergence, 312 h, Preemergence, 500 g ai/ha, scale 0 to 100, 0 no effect, 100 complete control, read-out: Cocklebur plant response rating) was 100%. The pest or weed control at 500 g/ha (redroot pigweed; [3]) was 100%, the pest or weed control at 2000 g/ha (redroot pigweed; [3]) was 100% and the pest or weed control at 500 g/ha (redroot pigweed; pre-emergence, Preemergence, visual rating, 0 to 100 scale (0 no effect, 100 complete control), read-out: Pigweed plant response rating) was 100%. The pest or weed control at 2000 g/ha (redroot pigweed; pre-emergence, Preemergence, 0 to 100 scale, 0 no effect, 100 complete control, read-out: Pigweed plant response rating) was 100%, the pest or weed control at 500 g/ha (barnyardgrass; [4]) was 80% and the pest or weed control at 2000 g/ha (barnyardgrass; [4]) was 90%. For the same compound, the pest or weed control at 500 g/ha (barnyardgrass; pre-emergence, Preemergence, visual rating, 0 to 100 scale (0 no effect, 100 complete control), read-out: Barnyardgrass plant response rating) was 100%, the pest or weed control at 2000 g/ha (barnyardgrass; pre-emergence, Preemergence, 0 to 100 scale, 0 no effect, 100 complete control, read-out: Barnyardgrass plant response rating) was 100% and the pest or weed control at 500 g/ha (giant foxtail; [5]) was 70%. It also gave a pest or weed control at 2000 g/ha (giant foxtail; [5]) of 70%, a pest or weed control at 500 g/ha (giant foxtail; pre-emergence, Preemergence, visual rating, 0 to 100 scale (0 no effect, 100 complete control), read-out: Foxtail, Giant plant response rating) of 100% and a pest or weed control at 2000 g/ha (giant foxtail; pre-emergence, Preemergence, 0 to 100 scale, 0 no effect, 100 complete control, read-out: Foxtail, Giant plant response rating) of 100%. For the same compound, the “Plant response rating (0 = no effect, 100 = complete control), Lambsquarters” value (lambsquarters; 62 g ai/ha, preemergence) was 100, the pest or weed control at 125 g/ha (lambsquarters; Chenopodium album, pre-emergence, 125 g ai/ha, scale 0-100, read-out: Plant response rating, Lambsquarters) was 100% and the pest or weed control at 250 g/ha (lambsquarters; Chenopodium album, pre-emergence, 250 g ai/ha, scale 0 to 100 (0 no effect, 100 complete control), visual, 12 to 14 days, read-out: Plant response rating, Lambsquarters) was 100%. For the same compound, the “Lambsquarters plant response rating” value (lambsquarters; [2]) was 100, the “Plant response rating (0 = no effect, 100 = complete control), Bermudagrass” value (bermudagrass; 62 g ai/ha, preemergence) was 80 and the pest or weed control at 125 g/ha (bermudagrass; Cynodon dactylon, pre-emergence, 312 h, 125 g ai/ha, scale 0-100, read-out: Plant response rating, Bermudagrass) was 90%. For the same compound, the pest or weed control at 250 g/ha (bermudagrass; Cynodon dactylon, pre-emergence, 312 h, 250 g ai/ha, scale 0 to 100 (0 no effect, 100 complete control), visual, 12 to 14 days, read-out: Plant response rating, Bermudagrass) was 90%, the pest or weed control at 500 g/ha (bermudagrass; Cynodon dactylon, pre-emergence, 312 h, Preemergence, 500 g ai/ha, scale 0 to 100, 0 no effect, 100 complete control, read-out: Bermudagrass plant response rating) was 90% and the “Plant response rating (0 = no effect, 100 = complete control), Morningglory” value (morningglory; 62 g ai/ha, preemergence) was 0. The pest or weed control at 250 g/ha (morningglory; Ipomoea, pre-emergence, 250 g ai/ha, scale 0 to 100 (0 no effect, 100 complete control), visual, 12 to 14 days, read-out: Plant response rating, Morningglory) was 30% and the “Morningglory plant response rating” value (morningglory; [2]) was 70.
